Patent US20150030544A1, “Enzymatic Nanosensor Compositions and Methods” (Northeastern University, priority 2012, published 2015)

Conditions: mice, 75 mg/kg i.p., averaged data of three experiments, model fit
Procedure: Enzyme nanosensor solutions were prepared using concentrated O2NS nanosensors (25 μL, ˜10^13 particles) and DAO (50 μL, 1.75IU). As a control, O2NS injections were made with concentrated nanosensors (25 μL) diluted with 50 μL of PBS. […] Mice were weighed, anesthetized with isoflurane (2% isoflurane, 98% oxygen), and placed in the IVIS imager. Two intradermal 30 μL injections of nanosensors were made along the midline of the back. Enzyme nanosensor was injected posterior to O2NS. After injection the animals are imaged every 30 seconds for 30 minutes. […] The mice were imaged for an additional 45 minutes to 1 hour. All animals were sacrificed after the end of the experiment. Three separate experiments were performed with new mice and fresh batches of nanosensor solution.
For data analysis, a region of interest encompassing the injection area was selected and intensity was recorded. […] The difference in normalized signals between the enzymatic nanosensors and O2NS was calculated for each mouse. […] The average data was then fit to a single compartment open model: Equation (1)
Where I is the normalized fluorescent intensity difference, A is a scaling parameter, ka and ke are the absorption and elimination rate constants and tlag is the lag time. The parameters ka, ke, and tlag were fit using the method of residuals and A was fit using least squares minimization for plotting purposes.

lag time: 4.8 min
SMILES: Cl.Cl.NCCc1c[nH]cn1 [histamine, histamine dihydrochloride]
